Data taken from US9708308B2, “Factor IXa inhibitors” (Merck Sharp & Dohme Corp., priority 2012, dated 2017).

What follows are compounds tested against Factor IXa (Homo sapiens, UniProt P00740) (assay: Determination of inhibitory activity against Factor IXa (cleavage of fluorescent peptide substrate)). Conditions: cleavage of fluorescent peptide CH3SO2-D-CHG-Gly-Arg-AFC, release of AFC; read-out: FIXa IC50.
Type: biochemical
In short: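 Factor IXa activity followed via cleavage of CH3SO2-D-CHG-Gly-Arg-AFC, releasing AFC. Fluorescence read at excitation 405 nm, emission 510 nm.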

Factor IXa, sequence (P00740 227-461 limits assumed): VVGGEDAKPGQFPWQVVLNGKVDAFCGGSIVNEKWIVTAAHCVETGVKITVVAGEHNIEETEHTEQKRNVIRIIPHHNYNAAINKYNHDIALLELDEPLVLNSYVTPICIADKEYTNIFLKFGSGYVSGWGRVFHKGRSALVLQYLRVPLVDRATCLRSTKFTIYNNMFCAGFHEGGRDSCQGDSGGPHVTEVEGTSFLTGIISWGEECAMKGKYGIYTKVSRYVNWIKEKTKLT
Factor IXa, sequence (P00740 47-191 partner limits assumed): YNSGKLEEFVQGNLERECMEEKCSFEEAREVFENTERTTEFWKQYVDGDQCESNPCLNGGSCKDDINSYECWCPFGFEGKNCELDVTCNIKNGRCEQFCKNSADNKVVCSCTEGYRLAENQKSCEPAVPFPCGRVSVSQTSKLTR

How did the IC50 turn out when `C[C@](O)(C(=O)Nc1ccc2c(N)noc2c1)[C@H]1OCCN(c2cc3n(n2)CCC3)C1=O` [Example 71, (R)—N-(3-aminobenzo[d]isoxazol-6-yl)-2-((R)-4-(5,6-dihydro-4H-pyrrolo[1,2-b]pyrazol-2-yl)-3-oxomorpholin-2-yl)-2-hydroxypropanamide] was run?
Its IC50 is 368 nM.

With `C[C@]1([C@@H](O)C(=O)Nc2ccc3c(N)noc3c2)OCCN(c2cccc(C(F)(F)F)n2)C1=O` [Example 72, (R)—N-(3-Aminobenzo[d]isoxazol-6-yl)-2-hydroxy-2-((R)-2-methyl-3-oxo-4-(6-(trifluoromethyl)pyridin-2-yl)morpholin-2-yl)acetamide] as the compound, how does the IC50 read?
Its IC50 is 12.9 nM.

With `C[C@]1([C@@H](O)C(=O)Nc2ccc3c(N)noc3c2)OCCN(c2ccn(-c3ccnc(C#N)c3)n2)C1=O` [Example 73, (R)—N-(3-Aminobenzo[d]isoxazol-6-yl)-2-((R)-4-(1-(2-cyanopyridin-4-yl)-1H-pyrazol-3-yl)-2-methyl-3-oxomorpholin-2-yl)-2-hydroxyacetamide] as the compound, how does the IC50 read?
Its IC50 is 66.1 nM.

For `CC[C@]1([C@@H](O)C(=O)Nc2ccc3c(N)noc3c2)OCCN(c2cccc(C(F)(F)F)n2)C1=O` [Example 74, (R)—N-(3-Aminobenzo[d]isoxazol-6-yl)-2-((R)-2-ethyl-3-oxo-4-(6-(trifluoromethyl)pyridin-2-yl)morpholin-2-yl)-2-hydroxyacetamide], which IC50 is on record?
The IC50 was 408 nM.

How did the IC50 turn out when `C[C@]1([C@@H](O)C(=O)Nc2ccc3c(N)noc3c2)OCCN(c2ccn(-c3ccc(=O)n(C(F)F)c3)n2)C1=O` [Example 76, (R)—N-(3-Aminobenzo[d]isoxazol-6-yl)-2-((R)-4-(1-(1-(difluoromethyl)-6-oxo-1,6-dihydropyridin-3-yl)-1H-pyrazol-3-yl)-2-methyl-3-oxomorpholin-2-yl)-2-hydroxyacetamide] was run?
The IC50 was 11.1 nM.

For `Cc1cc(N2CCO[C@](C)([C@@H](O)C(=O)Nc3ccc4c(N)noc4c3)C2=O)nn1-c1ccc(=O)n(C(F)F)c1` [Example 77, (R)—N-(3-Aminobenzo[d]isoxazol-6-yl)-2-((R)-4-(1-(1-(difluoromethyl)-6-oxo-1,6-dihydropyridin-3-yl)-5-methyl-1H-pyrazol-3-yl)-2-methyl-3-oxomorpholin-2-yl)-2-hydroxyacetamide], which IC50 is on record?
The IC50 was 26.5 nM.

With `C[C@]1([C@@H](O)C(=O)Nc2ccc3c(N)noc3c2)OCCN(c2nn(-c3ccc(=O)n(C(F)F)c3)cc2F)C1=O` [Example 78, (R)—N-(3-Aminobenzo[d]isoxazol-6-yl)-2-((R)-4-(1-(1-(difluoromethyl)-6-oxo-1,6-dihydropyridin-3-yl)-4-fluoro-1H-pyrazol-3-yl)-2-methyl-3-oxomorpholin-2-yl)-2-hydroxyacetamide] as the compound, how does the IC50 read?
The IC50 was 25.6 nM.

With `C[C@]1([C@@H](O)C(=O)Nc2ccc3c(N)noc3c2)OCCN(c2ccn(-c3ccc(F)cc3)n2)C1=O` [Example 79, (R)—N-(3-aminobenzo[d]isoxazol-6-yl)-2-((R)-4-(1-(4-fluorophenyl)-1H-pyrazol-3-yl)-2-methyl-3-oxomorpholin-2-yl)-2-hydroxyacetamide] as the compound, how does the IC50 read?
Its IC50 is 170 nM.

`C[C@]1([C@@H](O)C(=O)Nc2ccc3c(N)noc3c2)OCCN(c2ccn(-c3ccc(C#N)cc3)n2)C1=O` [Example 80, (R)—N-(3-aminobenzo[d]isoxazol-6-yl)-2-((R)-4-(1-(4-cyanophenyl)-1H-pyrazol-3-yl)-2-methyl-3-oxomorpholin-2-yl)-2-hydroxyacetamide] was tested. Which IC50 did it give?
The IC50 was 25.3 nM.

With `COC(=O)c1ccc(-n2ccc(N3CCO[C@](C)([C@@H](O)C(=O)Nc4ccc5c(N)noc5c4)C3=O)n2)cc1` [Example 81, methyl 4-(3-((R)-2-((R)-2-((3-aminobenzo[d]isoxazol-6-yl)amino)-1-hydroxy-2-oxoethyl)-2-methyl-3-oxomorpholino)-1H-pyrazol-1-yl)benzoate] as the compound, how does the IC50 read?
The IC50 was 418 nM.

`C[C@]1([C@@H](O)C(=O)Nc2ccc3c(N)noc3c2)OCCN(c2ccn(-c3ccc(C(=O)O)cc3)n2)C1=O` [Example 82, 4-(3-((R)-2-((R)-2-((3-aminobenzo[d]isoxazol-6-yl)amino)-1-hydroxy-2-oxoethyl)-2-methyl-3-oxomorpholino)-1H-pyrazol-1-yl)benzoic acid] was tested. Which IC50 did it give?
Its IC50 is 32.8 nM.

With `C[C@]1([C@@H](O)C(=O)Nc2ccc3c(N)noc3c2)OCCN(c2ccn(-c3ccc(Cl)cc3)n2)C1=O` [Example 83, (R)—N-(3-aminobenzo[d]isoxazol-6-yl)-2-((R)-4-(1-(4-chlorophenyl)-1H-pyrazol-3-yl)-2-methyl-3-oxomorpholin-2-yl)-2-hydroxyacetamide] as the compound, how does the IC50 read?
Its IC50 is 352 nM.

How did the IC50 turn out when `C[C@]1([C@@H](O)C(=O)Nc2ccc3c(N)noc3c2)OCCN(c2ccn(-c3ccc(S(C)(=O)=O)cc3)n2)C1=O` [Example 84, (R)—N-(3-aminobenzo[d]isoxazol-6-yl)-2-hydroxy-2-((R)-2-methyl-4-(1-(4-(methylsulfonyl)phenyl)-1H-pyrazol-3-yl)-3-oxomorpholin-2-yl)acetamide] was run?
The IC50 was 13.2 nM.

With `C[C@]1([C@@H](O)C(=O)Nc2ccc3c(N)noc3c2)OCCN(c2ccn(-c3cccnc3)n2)C1=O` [Example 85, (R)—N-(3-aminobenzo[d]isoxazol-6-yl)-2-hydroxy-2-((R)-2-methyl-3-oxo-4-(1-(pyridin-3-yl)-1H-pyrazol-3-yl)morpholin-2-yl)acetamide] as the compound, how does the IC50 read?
Its IC50 is 279 nM.

With `C[C@]1([C@@H](O)C(=O)Nc2ccc3c(N)noc3c2)OCCN(c2ccn(-c3ccc(C(F)(F)F)nc3)n2)C1=O` [Example 86, (R)—N-(3-aminobenzo[d]isoxazol-6-yl)-2-hydroxy-2-((R)-2-methyl-3-oxo-4-(1-(6-(trifluoromethyl)pyridin-3-yl)-1H-pyrazol-3-yl)morpholin-2-yl)acetamide] as the compound, how does the IC50 read?
The IC50 was 414 nM.

For `C[C@]1([C@@H](O)C(=O)Nc2ccc3c(N)noc3c2)OCCN(c2ccn(-c3cncc(C(F)(F)F)c3)n2)C1=O` [Example 87, (R)—N-(3-aminobenzo[d]isoxazol-6-yl)-2-hydroxy-2-((R)-2-methyl-3-oxo-4-(1-(5-(trifluoromethyl)pyridin-3-yl)-1H-pyrazol-3-yl)morpholin-2-yl)acetamide], which IC50 is on record?
The IC50 was 228 nM.

Which IC50 does the source give for `C[C@]1([C@@H](O)C(=O)Nc2ccc3c(N)noc3c2)OCCN(c2ccn(-c3cncc(C#N)c3)n2)C1=O` [Example 88, (R)—N-(3-aminobenzo[d]isoxazol-6-yl)-2-((R)-4-(1-(5-cyanopyridin-3-yl)-1H-pyrazol-3-yl)-2-methyl-3-oxomorpholin-2-yl)-2-hydroxyacetamide] here?
Its IC50 is 950 nM.

How did the IC50 turn out when `C[C@]1([C@@H](O)C(=O)Nc2ccc3c(N)noc3c2)OCCN(c2ccn(-c3ccncc3)n2)C1=O` [Example 89, (R)—N-(3-aminobenzo[d]isoxazol-6-yl)-2-hydroxy-2-((R)-2-methyl-3-oxo-4-(1-(pyridin-4-yl)-1H-pyrazol-3-yl)morpholin-2-yl)acetamide] was run?
Its IC50 is 1060 nM.

Which IC50 does the source give for `C[C@]1([C@@H](O)C(=O)Nc2ccc3c(N)noc3c2)OCCN(c2ccn(-c3ccncc3F)n2)C1=O` [Example 90, (R)—N-(3-aminobenzo[d]isoxazol-6-yl)-2-((R)-4-(1-(3-fluoropyridin-4-yl)-1H-pyrazol-3-yl)-2-methyl-3-oxomorpholin-2-yl)-2-hydroxyacetamide] here?
Its IC50 is 23.5 nM.

`COC(=O)c1cc(-n2ccc(N3CCO[C@](C)([C@@H](O)C(=O)Nc4ccc5c(N)noc5c4)C3=O)n2)ccn1` [Example 91, methyl 4-(3-((R)-2-((R)-2-((3-aminobenzo[d]isoxazol-6-yl)amino)-1-hydroxy-2-oxoethyl)-2-methyl-3-oxomorpholino)-1H-pyrazol-1-yl)picolinate] was tested. Which IC50 did it give?
The IC50 was 690 nM.

For `COc1cc(-n2ccc(N3CCO[C@](C)([C@@H](O)C(=O)Nc4ccc5c(N)noc5c4)C3=O)n2)ccn1` [Example 92, (R)—N-(3-aminobenzo[d]isoxazol-6-yl)-2-hydroxy-2-((R)-4-(1-(2-methoxypyridin-4-yl)-1H-pyrazol-3-yl)-2-methyl-3-oxomorpholin-2-yl)acetamide], which IC50 is on record?
The IC50 was 106 nM.

Which IC50 does the source give for `C[C@]1([C@@H](O)C(=O)Nc2ccc3c(N)noc3c2)OCCN(c2ccn(-c3ccnc(C(F)(F)F)c3)n2)C1=O` [Example 94, (R)—N-(3-aminobenzo[d]isoxazol-6-yl)-2-hydroxy-2-((R)-2-methyl-3-oxo-4-(1-(2-(trifluoromethyl)pyridin-4-yl)-1H-pyrazol-3-yl)morpholin-2-yl)acetamide] here?
Its IC50 is 12.9 nM.

With `C[C@]1([C@@H](O)C(=O)Nc2ccc3c(N)noc3c2)OCCN(c2ccn(-c3c(F)cncc3F)n2)C1=O` [Example 95, (R)—N-(3-aminobenzo[d]isoxazol-6-yl)-2-((R)-4-(1-(3,5-difluoropyridin-4-yl)-1H-pyrazol-3-yl)-2-methyl-3-oxomorpholin-2-yl)-2-hydroxyacetamide] as the compound, how does the IC50 read?
The IC50 was 251 nM.

With `Cc1cc(N2CCO[C@](C)([C@@H](O)C(=O)Nc3ccc4c(N)noc4c3)C2=O)nn1-c1ccnc(C(F)(F)F)c1` [Example 96, (R)—N-(3-aminobenzo[d]isoxazol-6-yl)-2-hydroxy-2-((R)-2-methyl-4-(5-methyl-1-(2-(trifluoromethyl)pyridin-4-yl)-1H-pyrazol-3-yl)-3-oxomorpholin-2-yl)acetamide] as the compound, how does the IC50 read?
Its IC50 is 49.1 nM.

`C[C@]1([C@@H](O)C(=O)Nc2ccc3c(N)noc3c2)OCCN(c2ccn(-c3ccnnc3)n2)C1=O` [Example 97, (R)—N-(3-aminobenzo[d]isoxazol-6-yl)-2-hydroxy-2-((R)-2-methyl-3-oxo-4-(1-(pyridazin-4-yl)-1H-pyrazol-3-yl)morpholin-2-yl)acetamide] was tested. Which IC50 did it give?
Its IC50 is 3.68 nM.

How did the IC50 turn out when `COc1cc(-n2ccc(N3CCO[C@](C)([C@@H](O)C(=O)Nc4ccc5c(N)noc5c4)C3=O)n2)cnn1` [Example 98, (R)—N-(3-aminobenzo[d]isoxazol-6-yl)-2-hydroxy-2-((R)-4-(1-(6-methoxypyridazin-4-yl)-1H-pyrazol-3-yl)-2-methyl-3-oxomorpholin-2-yl)acetamide] was run?
Its IC50 is 3.71 nM.

How did the IC50 turn out when `[2H]C([2H])([2H])Oc1cc(-n2ccc(N3CCO[C@](C)([C@@H](O)C(=O)Nc4ccc5c(N)noc5c4)C3=O)n2)cnn1` [Example 99, (2R)—N-(3-amino-1,2-benzoxazol-6-yl)-2-hydroxy-2-[(2R)-2-methyl-3-oxo-4-[1-[6-(trideuteriomethoxy)pyridazin-4-yl]pyrazol-3-yl]morpholin-2-yl]acetamide] was run?
Its IC50 is 3.7 nM.
